{
  "source": "patent US9422557B2",
  "about": "“Methods and compositions for weed control” (Monsanto Technology LLC, priority 2011, dated 2016)",
  "key": {"[1]": {"system": "Glyphosate-sensitive Palmer amaranth (A. palmeri R-22) plants", "test": "Topical treatment of Palmer amaranth with pooled ssDNA ACCase oligonucleotides followed by clethodim; plant height", "type": "in vivo, Amaranthus palmeri", "settings": "clethodim (SelectMax) 272 g ai/ha with 1% COC; ssDNA pool at 16 nmol applied 24 and 48 hours before herbicide where used; height followed up to twelve days after herbicide; four replications; FIG. 1", "description": "(§1) Glyphosate-sensitive Palmer amaranth (A. palmeri R-22) plants where grown in the greenhouse (30/20 C day/night T; 14 hour photoperiod) in 4 inch square pots containing Sun Gro® Redi-Earth and 3.5 kg/cubic meter Osmocote® 14-14-14 fertilizer. Palmer amaranth plants at 5 to 10 cm in height were treated with a pool of eight 8 short (21-22mer) single-strand antisense oligo DNA polynucleotides (ssDNA) targeting ACCase shown in Table 2 at 16 nmol, formulated in 10 millimolar sodium phosphate buffer (pH 6.8) containing 2% ammonium sulfate and 0.5% Silwet L-77. Plants were treated manually by pipetting 10 μL of polynucleotide solution on four fully expanded mature leaves, for a total of 40 microliters of solution per plant. Twenty-four and forty-eight hours later, the plants were treated with clethodim (SelectMax®, 0.97 lb ai per gallon; ACCase inhibitor) at 272 g ai/ha, crop oil concentrate (COC) at 1% was added to the herbicide treatments. Four replications of each treatment were conducted. Plant height was determined just before ssDNA treatment and at intervals upto twelve days after herbicide treatments to determine effect of the oligonucleotide and herbicide treatments."}, "[2]": {"system": "Glyphosate-sensitive Palmer amaranth (A. palmeri R-22) plants", "test": "Follow-up test of individual ACCase oligonucleotides with herbicide 24 hours later; growth effects", "type": "in vivo, Amaranthus palmeri", "settings": "4 nmol oligonucleotide per plant, four plants; herbicide applied 24 hours after the oligonucleotide treatment", "description": "as §1\nAn additional test was conducted to determine which of the ACCase oligonucleotides was responsible for the result. […]"}},
  "data": [
    {"compound": "CCSC(C)CC1CC(=O)C(C(CC)=NOC/C=C/Cl)=C(O)C1", "note": "(centres unmarked) [clethodim, 2-[1-[[[(2E)-3-chloro-2-propen-1-yl]oxy]imino]propyl]-5-[2-(ethylthio)propyl]-3-hydroxy-2-cyclohexen-1-one]", "values": [
      {"measurement": "reduction in plant height relative to the untreated control", "setting": "[1]", "result": 0, "unit": "%"}
    ]},
    {"compound": "oligo6: single-strand antisense DNA oligo targeting ACCase, GCACCACGAGGATCACAAGAA (DNA, backbone and methylation of C not given here; listed as Amaranthus palmeri)", "values": [
      {"measurement": "reduction of plant growth relative to untreated plants (average)", "setting": "[2]", "result": 40, "unit": "%"}
    ]}
  ]
}
